# “Also recorded” adds a separate entry of the source. Where no end group is shown, it is not given here. The star is where a group is joined. For = O=C*
# Tested on: OVA-induced asthmatic mice
# Test: OVA-induced bronchial asthma mouse model, Standard/Resolution protocols, drug before each i.n. challenge
# Type: in vivo, mouse (female BALB/c)
# Source text: The OVA-Induced Bronchial Asthma Mouse Model for Inhibition of Mast Cell Degranulation
# Reagents: Crystalline OVA was obtained from Pierce Chem. Co. (Rockford, Ill.) aluminum potassium sulfate (alum) from Sigma Chem. Co. (St. Louis, Mo.), pyrogen-free distilled water from Baxter, Healthcare Corporation (Deerfield, Ill.), 0.9% sodium chloride (normal saline) from Lymphomed (Deerfield, Ill.) and Trappsol™ HPB-L100 (aqueous hydroxypropyl beta cyclodextrin; 45 wt/vol % aqueous solution) from Cyclodextrin Technologies Development, Inc. (Gainesville, Fla.). The OVA (500 μg/ml in normal saline) was mixed with equal volumes of 10% (wt/vol) alum in distilled water. The mixture (pH 6.5 using 10 N NaOH) after incubation for 60 minutes at room temperature underwent centrifugation at 750 g for 5 minutes; the pellet was resuspended to the original volume in distilled water and used within one hour.
# The selective 5-lipoxtgenase inhibitor, Zileuton (N-[1-benzo[b]thien-2-ylethyl]-N-hydroxyurea; J. Pharmacol Exp Ther. 1991; 256: 929-937), was kindly provided by Drs. Bell and George W. Carter (Abbott Laboratories, Abbott Part, Ill.). Zileuton was dissolved in Trappsol.™. Histatek, Inc. (Seattle, Wash.) provided the mast cell degranulation inhibitor, f-Met-Leu-Phe-Phe (“HK-X”).
# Female BALB/c […] (6-8 wk of age at purchase; D and K, Seattle Wash.) were housed under conventional conditions for the studies.
# Allergen Immunization/Challenge Protocols: Mice received an i.p. injection of 0.2 ml (100 μg) of OVA with alum on the different protocols of Standard (FIG. 5A) and Resolution (FIG. 5B) (J. Exp Med. 1996; 184: 1483-1494). According to the different protocols, mice were anesthetized with 0.2 ml i.p. of ketamine (0.44 mg/ml)/xylazine (6.3 mg/ml) in normal saline before receiving an intranasal (i.n.) does of 100 μg OVA in 0.05 ml normal saline and an i.n. dose of 50 μg OVA in 0.05 ml normal saline separately on different days. Two control groups were used. Accordingly, the first group received normal saline with alum i.p. and normal saline without alum i.n.; the second group received OVA with alum i.p., OVA without alum i.n., and normal saline, alone.
# The trachea and left lung (the right lung is used for bronchoalveolar lavage (“BAL”)) were obtained and fixed in 10% neutral formaldehyde solution at room temperature for 6˜15h. After being embedded in paraffin, the tissues were cut into 5-um sections and processed with the different staining or immunolabling further. Discombe's eosinophil staining was used for counting the cell numbers with the counterstain of methylene blue. The eosinophil number per unit airway area (2,200 μm^2) was determined by morphometry (J. Pathol. 1992; 166: 395-404; Am Rev Respir Dis. 1993; 147:448-456). Fibrosis was identified with the Masson's trichrome staining. Airway mucus was identified by the following staining method: methylene blue, hematoxylin and eosin, mucicarmine, alcian blue, and alcian blue/periodic acid-Schiff (PAS) reaction (Troyer, H., “Carbohydrates” in Principles and Techniques of Histochemistry, Little, Brown and Company, Boston, Mass., 1980: 89-121; Sheehan, D. C., et al., “Carbohydrates” in Theory and Practice of Histotechnology, Battle Press, Columbus, Ohio, 1980: 159-179). Mucin was stained with mucicarmine solution; metanil yellow counterstain was employed.
# Acidic mucin and sulfated mucosubstances were stained with alcian blue, pH 2.5; nuclear fast red counterstain was used. Neutral and acidic mucosubstances were identified by alcian blue. pH 2.5, and PAS reaction. The degree of mucus plugging of the airways (0.5-0.8 mm in diameter) was also assessed by morphometry. The percent occlusion of airway diameter by mucus was classified on a semiquantitative scale from 0 to 4+ as described in Figure Legends. The histologic and morphometric analyses were performed by individuals blinded to the protocol design. […]
substance,measurement,setting,value
f-Met-Leu-Phe-Phe (For-MLFF) [Example 9],Reduction of airway eosinophils over time course,"1-, 2- and 3-month groups, versus OVA","reduced eosinophils comparably at one month, but much more beneficially at two and three months"
same,% of plug of airway,28 days,19%
same,Mucus plug score in airways,"28 days, semiquantitative scale 0 to 4+",1.4
same,"Mucus accumulation / mucus release in the airway (histology, morphometry)","HK-X given before i.n. OVA, FIG. 6, listed as HK-X",inhibits mucus accumulation; also recorded: markedly reduced
same,Infiltration of the interstitial tissue by eosinophils (histology),"compared to OVA-challenge alone, FIG. 6C",also reduced
same,Formation of mucus plugs / mucus production in small airways,"doses of 5 μg/kg and 10 μg/kg, FIG. 7",Both doses significantly reduce the mucus production in small airways

# — patent US20030130200A1, “Small peptides and methods for treatment of asthma and inflammation” (Hisatek, LLC, priority 1997, published 2003)
